Results: patent publication US20090291905A1, “FUNGAL PHYTOTOXIN FUSICOCCIN FOR THE TREATMENT AND DIAGNOSIS OF COAGULATION-CORRELATED PATHOLOGIES” (priority 2008, published 2009)
Square brackets hold non-standard residues; d marks the D form. Primed or numbered codes have the meaning given here. Ends that are not written are not given here. * marks the point of attachment. Myristoyl = CCCCCCCCCCCCCC(=O)*; pS′ = not defined here

Columns and labels:
[1] = test system: platelet aggregation (PRP); test: Platelet aggregation in PRP (turbidometric aggregometer); type: cell-based, human; details: for Platelet agglutination/aggregation induced: different FC concentrations, ristocetin 1 mg/ml
Experimental: Aggregation was studied with PRP using a turbidometric aggregometer as described in the Materials and Methods. A: effect of different concentrations of FC and ristocetin 1.0 mg/ml. B: effect of 40 μM FC in the presence of the aggregation antagonist RGDS peptide. C: effect of 40 μM FC in the presence of the cell-permeable 14-3-3 competitor MPAC peptide.
Washed platelets were prepared from platelet-rich plasma (PRP) obtained from healthy donors who had not taken medication for at least 9 days before bleeding. Preparation of PRP was performed as described by Dai et al. (2005).
PRPs were preincubated at 37° C. with different FC concentrations and, when indicated 0.1 mM MPaC or 0.75 mM RGDS. Aggregation was measured using a turbidometric platelet aggregometer Chrono-log 560 CA (Chrono-log Corporation, Pa., USA). 500 μl PRP were placed in a cuvette at 37° C. under continuous stirring at 1000 rpm. Aggregation was expressed as percentage of change in light transmission, with the value for the blank sample (PPP, Platelet-Poor Plasma) set at 100% and 0% for PRP.
To determine whether the FC-promoted binding of platelets to vWF results in platelet aggregation, the effect of FC on platelet functionality was assayed using an optical aggregometer. […] To determine whether the FC effect involves 14-3-3 proteins, the MPAC peptide was tested in FC-induced platelet agglutination.

[2] = biological target: T1, 14-3-3 proteins / bL15Vp peptide (last 15 amino acids of the H+-ATPase) (Zea mays, UniProt P49106); test: Binding of 32P-labelled 14-3-3 (GF14-6) to resin-bound bL15Vp phosphopeptide; details: 10 μM FC; resin-bound radioactivity
T1 construct: GST (pGEX-2TK, with protein kinase A site at the junction, 32P-labelled) (N); made in house; host or cells: E. coli (14-3-3); peptide synthesized by Neosystem
T1 sequence (P49106 1-261): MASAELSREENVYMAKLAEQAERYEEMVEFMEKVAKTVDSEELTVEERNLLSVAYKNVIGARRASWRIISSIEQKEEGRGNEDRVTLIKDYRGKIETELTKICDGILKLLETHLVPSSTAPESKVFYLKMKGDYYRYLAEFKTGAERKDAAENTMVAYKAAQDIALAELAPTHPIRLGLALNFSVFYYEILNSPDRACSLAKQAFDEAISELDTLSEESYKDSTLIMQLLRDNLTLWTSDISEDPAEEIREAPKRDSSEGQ
Experimental: (§1) Peptides were immobilized onto streptavidin-agarose resin and incubated with ^32P-labelled 14-3-3 in the absence or in the presence of 10 μM FC. After washing, radioactivity associated with the resin was measured. Data are the mean of three independent experiments.
(§2) 0.5 nmol of biotinylated peptides were immobilized onto 40 μl of streptavidin-agarose resin (Sigma-Aldrich) and incubated in 50 μl of buffer H with 3 μg of ^32P-labelled GF14-6 (1.4 kBq/μg) for 60 min at room temperature in the absence or in the presence of 10 μM FC. Resin was then centrifuged at 2000×g for 5 min and washed three times with 1 ml of buffer H. Resin-bound radioactivity was measured in a liquid scintillation β-counter Packard Tri Carb 2100TR (Canberra, Australia).
(§3) A phosphorylated biotinyl-peptide (bD15Lp), reproducing the last 15 amino acid residues of GPIbα, and containing the 14-3-3 binding sequence, was used in interaction studies with 14-3-3 proteins to verify the ability of FC to stimulate the interaction. The unphosphorylated corresponding peptide ([…]) and peptides reproducing the last 15 amino acids of the H^+-ATPase in unphosphorylated (bL15V) and phosphorylated form (bL15Vp) were used as control.
(§4) The peptides were immobilized onto a streptavidin-agarose resin and incubated with ^32P-labelled 14-3-3 proteins.

[3] = test system: platelet adhesion to immobilized vWF; test: Platelet adhesion to immobilized vWF; type: cell-based, human; details: platelets pre-incubated with FC
Experimental: 90 μl platelet suspension was incubated with purified vWF immobilized onto polystyrene wells. After washings, adherent platelets were determined measuring the endogenous acid phosphatase activity. +FC, platelets previously treated with 40 μM FC; +ADP, incubation in the presence of 50 μM ADP.
Platelet adhesion to immobilized vWF was performed in polystyrene microtitre plate wells as described by Lu et al. (1994) with minor modifications. Briefly, plate wells were coated overnight at 4° C. with 100 μl 15 μg/ml purified vWF and 15 μg/ml BSA. After three washes with PBS unbound sites were saturated with 200 μl of 2 mg/ml BSA for 2 h at RT. After three washings with PBS, wells were incubated with 90 μl platelet suspension (2.0×10^8/ml) previously treated with 40 μM FC. Where indicated, wells were preloaded with 50 μM ADP. After 1 h incubation at RT, non-adherent platelets were removed by 7 washings with a buffer 10 mM Hepes containing 145 mM NaCl, 5 mM KCl, 1 mM MgCl2, 2 mM CaCl2, 10 mM glucose, 3.5 mg/ml BSA, pH 7.35. The number of vWF-bound platelet was calculated by measurement of endogenous acid phosphatase using 130 μl/well of developing buffer (10 mM p-nitrophenyl phosphate, 0.1% Triton X-100, 50 mM sodium citrate, pH 5.5). After 1 h at 37° C. incubation, the reaction was stopped by the addition of 10 μl of 1 M NaOH/well and the plates were read at 405 nm on an automated plate reader. […]

14-3-3 proteins / GPIbα = biological target: T2, 14-3-3 proteins / GPIbα (UniProt P07359+P49106); test: Overlay assay of 32P-14-3-3 on blotted platelet proteins; type: binding, human; details: 10 μM FC; autoradiography
T2 construct: GST (pGEX-2TK, with protein kinase A site at the junction, 32P-labelled) (N); made in house; host or cells: E. coli (14-3-3 probe); GPIbα endogenous, from boiled human platelet suspension
T2 sequence (P07359 17-652, one chain of several): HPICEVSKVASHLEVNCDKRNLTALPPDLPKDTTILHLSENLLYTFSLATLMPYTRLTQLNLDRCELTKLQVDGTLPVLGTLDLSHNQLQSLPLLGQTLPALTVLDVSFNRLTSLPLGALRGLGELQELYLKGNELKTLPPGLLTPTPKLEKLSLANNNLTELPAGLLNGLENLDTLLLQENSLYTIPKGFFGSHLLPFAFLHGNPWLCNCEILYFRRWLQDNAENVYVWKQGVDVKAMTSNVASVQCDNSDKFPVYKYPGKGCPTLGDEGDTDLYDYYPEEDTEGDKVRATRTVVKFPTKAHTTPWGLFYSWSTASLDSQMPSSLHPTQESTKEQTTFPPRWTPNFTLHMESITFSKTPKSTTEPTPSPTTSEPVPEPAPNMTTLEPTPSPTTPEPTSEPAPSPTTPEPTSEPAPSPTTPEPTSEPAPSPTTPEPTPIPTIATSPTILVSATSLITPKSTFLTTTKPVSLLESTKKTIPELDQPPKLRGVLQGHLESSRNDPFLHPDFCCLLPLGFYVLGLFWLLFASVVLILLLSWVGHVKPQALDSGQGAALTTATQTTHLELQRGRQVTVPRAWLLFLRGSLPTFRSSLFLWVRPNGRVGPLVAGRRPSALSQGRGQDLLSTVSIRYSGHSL
Experimental: A: SDS-PAGE profile of platelet proteins. B: immunodecoration of GPIbα with anti-GPIbα ([…]) antidoby. C: overlay assay. Maize plasma membrane proteins (lanes 1, positive control) or platelet proteins (lanes 2) were separated by SDS-PAGE, blotted onto nitrocellulose membrane, incubated with ^32P-14-3-3 in the absence (−FC) or in the presence (+FC) of 10 μM FC and subjected to autoradiography as described in the Materials and Methods.
SDS-PAGE was performed as described by Laemmli (1970), in a Mini Protean apparatus (Bio-Rad). The overlay assay was carried out according to Fullone et al. (1998), with minor modifications. The GST-fused 14-3-3 was labelled with [γ^32P]-ATP on cAMP-dependent protein kinase phosphorylation site present at junction between GST and the cloned protein, ^32P-labelled GF14-6 was used as probe in the overlay experiments. 30 μl of platelet suspension (2.0×10^8/mi) was boiled in Laemmli loading buffer, separated on SDS-PAGE and blotted on nitrocellulose membrane by semidry electroblotting. 20 μg of maize plasma membrane proteins were used as positive control. […] Nitrocellulose membrane was extensively washed with buffer HT and radioactivity detected by autoradiography. […]

isolated human platelets = test: Binding of [3H]FC to isolated human platelets; details: 10 nM [3H]FC, displaced by 10 μM unlabelled FC; 1 h at 37° C.
Experimental: 30 μl of platelet suspension (2.0×10^8/ml) were incubated for 1 h at 37° C. with 5×10^5 dpm [^3H]FC in 100 μl PBS containing 5 mM MgCl2. Where indicated, 10 μM cold FC was added (+FC). Platelets were then sedimented by centrifugation and radioactivity measured by scintillation counting.
30 μl of platelet suspension (2.0×10^8/ml) were incubated for 1 h at 37° C. with 5×10^5 dpm [^3H]FC in 100 μl PBS containing 5 mM MgCl2. To calculate specific binding, control sample was incubated with 10 μM FC. Platelets were centrifuged at 2000 g for 4 min in a refrigerated microcentrifuge and extensively washed in PBS containing 5 mM MgCl2. 500 μl perchloric acid was then added and radioactivity was measured in a liquid scintillation β-counter.
In order to verify whether a FC binding activity is present in purified human platelets, a [^3H]FC analogue (Ballio et al., 1980) was utilised. 30 μl platelet suspension in PBS (2.0×10^8/ml) were incubated with 10 nM [^3H]FC, and after several washings, the platelet-associated radioactivity was measured. The specific [^3H]FC binding was evaluated by adding a saturating concentration of unlabelled FC.

[4] = biological target: T3, 14-3-3 proteins / bD15Lp peptide (last 15 amino acid residues of GPIbα) (UniProt P07359+P49106); test: Binding of 32P-labelled 14-3-3 (GF14-6) to resin-bound bD15Lp phosphopeptide; details: 10 μM FC; resin-bound radioactivity; no binding in the absence of FC
T3 construct: GST (pGEX-2TK, with protein kinase A site at the junction, 32P-labelled) (N); made in house; host or cells: E. coli (14-3-3); peptide synthesized by Neosystem
Experimental: as §1, §2, §3, §4

| Compound | Inhibition of FC-induced platelet aggregation ([1]; 40 μM FC, 0.1 mM MPαC or 0.75 mM RGDS) | Platelet agglutination/aggregation induced ([1]; PRP, 37° C.) | Effect of FC on 14-3-3 binding to immobilized bL15Vp peptide [2] | FC concentration giving maximum agglutination ([1]; PRP, 37° C.) [µM] | Number of platelets adherent to vWF ([3]; in the presence of 50 μM platelet agonist ADP (+ADP)) | Number of platelets adherent to vWF ([3]; resting platelets (−ADP)) | Effect of FC on the interaction between 14-3-3 proteins and GPIbα (135 kDa band) (14-3-3 proteins / GPIbα) | Specific [3H]FC binding to platelets (isolated human platelets) | Effect of FC on 14-3-3 binding to immobilized bD15Lp peptide [4] |
| --- | --- | --- | --- | --- | --- | --- | --- | --- | --- |
| C13H27CONH-Ser-lle-Arg-Tyr-Ser-Gly-His-pSer-Leu (Myristoyl-SIRYSGH[pS′]L) [MPαC, reference compound] | completely inhibits FC effect |  |  |  |  |  |  |  |  |
| ristocetin [reference compound] |  | rapid platelet agglutination |  |  |  |  |  |  |  |
| C=CC(C)(C)OC[C@H]1O[C@H](O[C@@H]2C3=C([C@H](C)COC(C)=O)C[C@H](O)[C@]3(C)/C=C3/[C@@H](COC)CC[C@H]3[C@@H](C)[C@H]2O)[C@H](O)[C@@H](OC(C)=O)[C@@H]1O [FC, fusicoccin] |  | slight but reproducible agglutination in a dose-dependent manner | strongly stimulated | 40 | significantly increased | significantly increased | the interaction is increased | platelets possess specific FC binding activity | in the presence of the toxin binding is generated |
